Columns and labels:
[1] = Zeta potential assay of LNPs; assay type: physicochemical; settings: LNP, hEPO mRNA, Lipid:Cholesterol:DSPC:PEG-2k 50:38.5:10:1.5, N:P 6
Excerpt: (§1) Various lipid nanoparticle compositions comprising a nucleic acid payload are characterized by a variety of methods. For example, dynamic light scattering (DLS) is used to determine particle sizes (Wyatt Dynapro Platereader 111). In addition, instruments such as the Zetasizer Nano ZS (Malvern Instruments Ltd) are used to measure multiple physical properties of a lipid nanoparticle composition, such as particle size, polydispersity index (PDI), and zeta potential. Fluorescence-based assays are used to determine the efficiencies of nucleic acid encapsulation in the lipid nanoparticles. Fluorescence-based assays are used to determine the “apparent pKa” of the lipid nanoparticles. Both fluorescence assays are evaluated on a Varioskanlux plate reader (ThermoScientific).
A Zetasizer Nano ZS (Malvern Instruments Ltd) is used to determine the zeta potential of the nanoparticle compositions. Briefly, a 5 uL aliquot of an approximately 0.5 mg mRNA/mL sample is diluted into 800 uL 0.1×PBS. This sample is then transferred to a disposable conducting cuvette and the zeta potential is measured.

[2] = Encapsulation efficiency, fluorescence based Ribogreen assay; assay type: physicochemical; settings: LNP, hEPO mRNA, Lipid:Cholesterol:DSPC:PEG-2k 50:38.5:10:1.5, N:P 6
Protocol: For lipid nanoparticle formulations containing an RNA, a QUANTIT™ RIBOGREEN® RNA assay (Invitrogen Corporation) is used to evaluate the encapsulation of RNA within the lipid nanoparticle formulation.
The samples are diluted to ˜10 ug/ml in TE buffer. In a 96 well plate, 50 ul of the diluted sample is added to 50 uL TE buffer in duplicates and 20 uL of diluted sample is added to 80 uL Triton X buffer (2% triton in TE buffer) in duplicates. The plate is incubated for 10 minutes at room temperature. Next, RIBOGREEN® is diluted 1:200 in TE BUFFER, and 100 uL is added to each sample well. The fluorescence intensity is measured using a fluorescence plate reader (e.g., Varioskanlux, ThermoScientific) at an excitation wavelength of about 480 nm and an emission wavelength of about 520 nm. The encapsulation efficiency can be determined by using the percentage ratio of non-encapsulated RNA (TE sample) over the total RNA (TX sample), then subtracting from 100 to find the percentage of encapsulated RNA amount.
(§2) LNPs were characterized by dynamic light scattering (DLS) measurement for measuring its hydrodynamic radius and polydispersity index (PDI). Encapsulation efficiency (EE %) and total RNA concentration were quantitated using a fluorescence based Ribogreen assay.

[3] = Apparent pKa of LNPs (TNS assay); assay type: physicochemical; settings: LNP, hEPO mRNA, Lipid:Cholesterol:DSPC:PEG-2k 50:38.5:10:1.5, N:P 6
Excerpt: as §1
The apparent pKa of lipid nanoparticle composition is measured using a 6-(p-Toluidino)-2-naphthalenesulfonic acid (TNS) assay. Briefly, lipid nanoparticles (10 uL of approximately 0.5 mg mRNA/mL) and TNS probe (40 uL of 1 mM stock) are added to 750 uL of TNS buffer (25 mM citric acid, 20 mM sodium phosphate, 150 mM NaCl, and 20 mM ammonium acetate), at a pH ranging from 2 to 10. 20 uL of each sample are added to 80 uL of buffer at each pH in a 96-well plate. The plate is incubated for 10 minutes, and the fluorescence signal is measured by means of a spectrofluorometer (Varioskanlux, ThermoScientific) with excitation/emission settings of λex=321 nm, and λem=445 nm. The apparent pKa of the nanoparticle composition is determined by deriving the pH at which 50% of the pH 2 fluorescent signal is present. All datapoints are normalized to the fluorescent signal at pH 2.

[4] = LNP size and polydispersity index by dynamic light scattering (DLS); assay type: physicochemical; settings: hEPO mRNA, Lipid:Cholesterol:DSPC:PEG-2k 50:38.5:10:1.5, N:P 6
Excerpt: as §1
After formulation and processing of the lipid nanoparticle compositions, the Z-average size of lipid nanoparticle composition are assayed by dynamic light scattering (DLS) (e.g., using a Wyatt Dynapro Platereader III or Malvern Zetasizer ZS). Briefly, an aliquot of 2 uL of the processed nanoparticle composition mixture (at an RNA concentration of approximately 0.5 mg/mL) is diluted into 50 uL phosphate buffered saline (0.1×PBS) and loaded into a 384 well plate. The sample is then analyzed to determine nanoparticle size.
as §2

C57BL/6 female mice = experiment: In vivo hEPO expression of hEPO mRNA LNPs, serum ELISA; settings: LNP 50:38.5:10:1.5, N:P 6, 0.2 mg/kg hEPO mRNA, tail vein injection, blood serum 6 h post-administration
Protocol: In this example, messenger RNA molecules encoding hEPO proteins were formulated in lipid nanoparticles for delivery in vivo. The lipid nanoparticle (LNP) formulations comprised of a lipid composition of ionizable lipid: helper lipid: cholesterol. DMG-PEG2k at 50:10:38.5:1.5 mol %. The lipid mixture in ethanol was mixed with hEPO mRNA in RNA acidifying buffer (10 mM citrate, pH 4) at an ionizable-lipid-nitrogen-to-RNA-phosphate ratio (N:P) of 6 using a microfluidic device (Precision NanoSystems, Inc.) at a combined flow rate of 10 mL/min (7.5 mL/min for aqueous buffer, RNA and 2.5 mL/min for ethanol, lipid mix). The resulting particles were neutralized by buffer exchange into Dulbecco's phosphate buffer solution via PD-10 desalting column. The neutralized particles were concentrated using 100 kDa AMICON® Ultra centrifugal filters and sterile filtered using 0.2 um syringe filters. Samples were then characterized and diluted as needed (3 replicates).
The in vivo studies were performed in C57BL/6 female mice at 6 to 8 weeks weighing in at approximately 20 g. The LNPs formulated with different ionizable lipids at 0.2 mg/kg of hEPO mRNA were administered by tail vein injection and animals were euthanized at 6 h post-administration for blood serum sample collection. The hEPO levels from the samples were analyzed and cross-compared by enzyme-linked immunoassay (ELISA) according to manufacturer's protocol. The hEPO expression levels for each of the LNPs was compared to a control LNP comprising SM102 (DC Chemicals Cat. No. DC52025). (FIG. 1).

Compound | Zeta [1] | EE [2] | pKa [3] | PDI [4] | Size [4] | hEPO (C57BL/6 female mice)
CCCCCCCCCCNP(=O)(OCC)OCCCCCN(CCO)CCCCCCCC(=O)OC(CCCCCCCC)CCCCCCCC (stereo not drawn) [Lipid 15] | 0.2 mV | 94.8% | 7.0 | 0.165 | 83.1 nm | 123.69 ng/mL
CCCCCCCCCNP(=O)(OCC)OCCCCCN(CCO)CCCCCCCC(=O)OC(CCCCCCCC)CCCCCCCC (stereo not drawn) [Lipid 16] | −0.4 mV | 88.1% | 7.0 | 0.116 | 91.6 nm | 79.22 ng/mL
CCCCCCCCC(CC)OC(=O)CCCCCCCN(CCCCCCCC(=O)OC(CCCCCCCC)CCCCCCCC)CCCNc1nnc(N)[nH]1 (stereo not drawn) [Lipid 17] | −14.1 mV | 98.8% | 6.1 | 0.169 | 75.1 nm | 6.59 ng/mL
CCCCCCCCC(CC)OC(=O)CCCCCCCN(CCCCCCCC(=O)OC(CCCCCCCC)CCCCCCCC)CCCn1nc(N)cc1N (stereo not drawn) [Lipid 18] | −12.8 mV | 98.9% | 6.5 | 0.079 | 67.2 nm | 386.98 ng/mL
CCCCCCCCC(CC)OC(=O)CCCCCCCN(CCCCCCCC(=O)OC(CCCCCCCC)CCCCCCCC)CCCNS(=O)(=O)NC (stereo not drawn) [Lipid 19] | −27.6 mV | 96.9% | 6.3 | 0.183 | 60.9 nm | 1014.79 ng/mL
CCCCCCCCC(CC)OC(=O)CCCCCCCN(CCCCCCCC(=O)OC(CCCCCCCC)CCCCCCCC)CCCNS(=O)(=O)N(C)C (stereo not drawn) [Lipid 20] | −14.5 mV | 95.2% | 6.6 | 0.162 | 58.6 nm | 361.46 ng/mL
CCCCCCCCC(CC)OC(=O)CCCCCCCN(CCCCCCCC(=O)OC(CCCCCCCC)CCCCCCCC)CCCn1nc(N)nc1N (stereo not drawn) [Lipid 21] | −12.3 mV | 96.4% | 6.5 | 0.277 | 83.3 nm | 0.00 ng/mL
CCCCCCCCC(CC)OC(=O)CCCCCCCN(CCCCCCCC(=O)OC(CCCCCCCC)CCCCCCCC)CCCNc1cc(N)n[nH]1 (stereo not drawn) [Lipid 22] | −15.3 mV | 99.9% | 5.8 | 0.159 | 62.7 nm | 78.29 ng/mL
CCCCCCCCCCCOC(=O)CCCCCN(CCO)CCCCCCCC(=O)OC(CCCCCCCC)CCCCCCCC [SM-102, heptadecan-9-yl 8-((2-hydroxyethyl)(6-oxo-6-(undecyloxy)hexyl)amino)octanoate, reference compound] | −3.1 mV | 96.7% | 7 | 0.106 | 78.70 nm | 2457.05 ng/mL
